# Test results from US9730445B2, “Herbicidal compositions comprising 4-amino-3-chloro-5-fluoro-6-(4-chloro-2-fluoro-3-methoxyphenyl) pyridine-2-carboxylic acid or a derivative thereof and fungicides” (DOW AGROSCIENCES LLC, priority 2013, dated 2017).
# Where “and” joins values, the source holds several entries; their conditions need not be identical. Identical values can stand only once.
# Tests used:
# [1] = test system: BRAPP; assay: Postemergence foliar-applied weed control, direct-seeded rice (greenhouse); type: in vivo
# Excerpt: Seeds or nutlets of the desired test plant species were planted in a soil matrix prepared by mixing aloam or sandy loam soil (e.g., 28.6 percent silt, 18.8 percent clay, and 52.6 percent sand, with a pH of about 5.8 and an organic matter content of about 1.8 percent) and calcareous grit in an 80 to 20 ratio. The soil matrix was contained in plastic pots with a volume of 1 quart and a surface area of 83.6 square centimeters (cm^2). When required to ensure good germination and healthy plants, a fungicide treatment and/or other chemical or physical treatment was applied. The plants were grown for 8-22 days in a greenhouse with an approximate 14 hour (h) photoperiod which was maintained at about 29° C. during the day and 26° C. during the night. Nutrients (Peters Excel® 15-5-15 5-Ca 2-Mg and iron chelate) were applied in the irrigation solution as needed and water was added on a regular basis. Supplemental lighting was provided with overhead metal halide 1000-Watt lamps as necessary. The plants were employed for testing when they reached the first through fourth true leaf stage.
# Treatments consisted of the acid or esters of 4-amino-3-chloro-5-fluoro-6-(4-chloro-2-fluoro-3-methoxy-phenyl)pyridine-2-carboxylic acid (Compound A), each formulated as an SC (suspension concentrate), and various fungicidal components alone and in combination. Forms of compound A were applied on an acid equivalent basis.
# Treatment requirements were calculated based upon the rates being tested, the concentration of active ingredient or acid equivalent in the formulation and a 12 milliliter (mL) application volume at a rate of 187 liters per hectare (L/ha).
# For treatments comprised of formulated compounds, measured amounts of compounds were placed individually in 25 mL glass vials and diluted in a volume of 1.25% volume per volume (v/v) Agri-Dex® crop oil concentrate to obtain 12× stock solutions. […] Application solutions were prepared by adding an appropriate amount of each stock solution (e.g., 1 mL) and diluted to the appropriate final concentrations with the addition of […] of an aqueous mixture of 1.25% (v/v) crop oil concentrate so that the final spray solutions contained 1.25+/−0.05% (v/v) crop oil concentrate.
# For treatments comprised of technical compounds, weighed amounts can be placed individually in 25 mL glass vials and dissolved in a volume of 97:3 volume per volume (v/v) acetone/dimethyl sulfoxide (DMSO) to obtain 12× stock solutions. […] When technical materials are used, the concentrated stock solutions can be added to the spray solutions so that the final acetone and DMSO concentrations of the application solutions are 16.2% and 0.5%, respectively.
# As required, additional water and/or 97:3 v/v acetone/DMSO was added to individual application solutions so that the final acetone and DMSO concentrations of the application solutions being compared were 8.1% and 0.25%, respectively
# All stock solutions and applications solutions were visually inspected for compound compatibility prior to application. Spray solutions were applied to the plant material with an overhead Mandel track sprayer equipped with 8002E nozzles calibrated to deliver 187 L/ha over an application area of 0.503 square meters (m^2) at a spray height of 18 to 20 inches (46 to 50 cm) above average plant canopy height. Control plants were sprayed in the same manner with the solvent blank.
# (§1) The treated plants and control plants were placed in a greenhouse as described above and watered by sub-irrigation to prevent wash-off of the test compounds. After approximately 3 weeks, the condition of the test plants as compared with that of the untreated plants was determined visually and scored on a scale of 0 to 100 percent where 0 corresponds to no injury or growth inhibition and 100 corresponds to complete kill. […]
# [2] = test system: LEFCH; assay: In-water applied weed control, transplanted paddy rice (greenhouse); type: in vivo, Leptochloa chinensis (L.) Nees (Chinese sprangletop)
# Protocol: Weed seeds or nutlets of the desired test plant species were planted in puddled soil (mud) prepared by mixing a shredded, non-sterilized mineral soil (50.5 percent silt, 25.5 percent clay, and 24 percent sand, with a pH of about 7.6 and an organic matter content of about 2.9 percent) and water at a 1:1 volumetric ratio. The prepared mud was dispensed in 365 mL aliquots into 16-ounce (oz.) non-perforated plastic pots with a surface area of 86.59 square centimeters (cm^2) leaving a headspace of 3 centimeters (cm) in each pot. Rice seeds were planted in Sun Gro MetroMix® 306 planting mixture, which typically has a pH of 6.0 to 6.8 and an organic matter content of about 30 percent, in plastic plug trays. Seedlings at the second or third leaf stage of growth were transplanted into 860 mL of mud contained in 32-oz. non-perforated plastic pots with a surface area of 86.59 cm^2 4 days prior to herbicide application. The paddy was created by filling the headspace of the pots with 2.5 to 3 cm of water. When required to ensure good germination and healthy plants, a fungicide treatment and/or other chemical or physical treatment was applied. The plants were grown for 4-22 days in a greenhouse with an approximate 14 hour (h) photoperiod which was maintained at about 29° C. during the day and about 26° C. during the night. Nutrients were added as Osmocote® (17:6:10, N:P:K+minor nutrients) at 2 g per cup. Water was added on a regular basis to maintain the paddy flood, and supplemental lighting was provided with overhead metal halide 1000-Watt lamps as necessary. The plants were employed for testing when they reached the first through fourth true leaf stage. […]
# Treatment requirements for each compound or fungicidal component were calculated based upon the rates being tested, the concentration of active ingredient or acid equivalent in the formulation, an application volume of 2 mL per component per pot, and an application area of 86.59 cm^2 per pot.
# For formulated compounds, a measured amount was placed in an individual 100 or 200 mL glass vial and was dissolved in a volume of 1.25% (v/v) Agri-Dex® crop oil concentrate to obtain application solutions. […]
# as §1, with “water was added as needed” for “watered by sub-irrigation”, “maintain a paddy flood.” for “prevent wash-off of the test compounds.”, “weeks” for “weeks,”
smiles,measurement,setting,value
COc1c(Cl)ccc(-c2nc(C(=O)OCc3ccccc3)c(Cl)c(N)c2F)c1F [Compound A Benzyl Ester],Visual Weed Control (%)—20 DAA BRAPP Obs,"[1]; 20 DAA, r9-11 ester 8/16/32 g ae/ha alone, r12 isotianil 200 g ai/ha alone, r13-15 ester 8/16/32 + 200",85% and 90% and 60%
same,Visual Weed Control (%)—21 DAA BRAPP Obs,"[1]; r29-30 ester 8/16 g ae/ha alone, r31-33 hexaconazole 25/50/100 g ai/ha alone, r34-39 ester 8/16 at each of 25, 50, 100",55% and 60%
same,Visual Weed Control (%)—21 DAA BRAPP Obs,"[1]; r38-39 ester 8/16 g ae/ha alone, r40 isotianil 380 g ai/ha alone, r41-42 ester 8/16 + 380",55% and 60%
same,Visual Weed Control (%) - 19 DAA LEFCH Obs,[2]; Compound A Benzyl Ester 8 g ae/ha,3%
same,Visual Weed Control (%) - 19 DAA LEFCH Obs,[2]; Compound A Benzyl Ester 16 g ae/ha,8%
